Results on 73 sequences are retold here after the supplement of paper PMC11208160.
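Note: IS621 recombinase and bridge RNA in Escherichia coli cells.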

This data set can be described thus: recombinant barcode read abundance after kanamycin selection (control-corrected) (log10(CPM+1)); higher = more efficient recombination; sequences stand for … in AGTGCAGAGAAAATCGGCCAGTTTTCTCTGCCTGCAGTCCGCATGCCGT…AGATTTATGCAGCGGACTGCCTTTCTCCCAAAGTGATAAACCGGACAGTATCATGGACCGGTTTTCCCGGTAATCCGTATTTGCAAGGTTGGTTTCACT; site = the 11-nt target. On the procedure:
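Pooled E. coli target-specificity screen for the IS621 bridge recombinase. Each library plasmid pairs an 11-nt target (CT core) with a bridge RNA whose target-binding loop (9-nt LTG + 4-nt RTG) is reprogrammed; the rest of the 177-nt WT IS621 bridge RNA scaffold is fixed. The plasmid is co-electroporated with a WT donor plasmid; recombinase is induced with 0.1 mM IPTG and recombinants are selected on kanamycin. Recombinant barcodes are sequenced, converted to CPM, averaged over two biological replicates and corrected by the unselected control CPM. Molecule = full bridge RNA written as DNA: LTG = specificity nt 1-9, RTG = reverse complement of specificity nt 8-11, in the WT scaffold.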
Regarding “ACCTTGTCTTGGGTTCTAACCTGTTGCTA (site GCCATGTCTTA)”, the “recombinant barcode read abundance (log10)” value was determined as 0.0578.

In the case of “ACGAAGGCTTGGGTTCTAACCTGTTGCCT (site ACGAAGGCTAG)”, the “recombinant barcode read abundance (log10)” value was 0.696.

In the case of “ACGAAGGCTTGGGTTCTAACCTGTTGCCT (site ACGAAGGCTCG)”, the “recombinant barcode read abundance (log10)” value is 0.0407.

In the case of “ACGAGCGCTTGGGTTCTAACCTGTTGCCT (site ACGAACGCTAG)”, the “recombinant barcode read abundance (log10)” value came to 0.132.

As to “ACGAGCGCTTGGGTTCTAACCTGTTGCCT (site ACGACCGCTAG)”, the “recombinant barcode read abundance (log10)” value was determined as 0.0589.

“ACGAGCGCTTGGGTTCTAACCTGTTGCCT (site ACGAGCGCTAG)”: the “recombinant barcode read abundance (log10)” value is 1.54.

Regarding “ACGAGCGCTTGGGTTCTAACCTGTTGCCT (site ACGATCGCTAG)”, the “recombinant barcode read abundance (log10)” value is 0.0598.

As for “ACGAGCTCTTGGGTTCTAACCTGTTGCTG (site ACGAGCTCTCA)”, the “recombinant barcode read abundance (log10)” value was found to be 1.84.

Take “ACGAGCTCTTGGGTTCTAACCTGTTGCTG (site CCGCGCTCTCA)”: the “recombinant barcode read abundance (log10)” value came to 0.0264.

For the sequence “ACGAGTACTTGGGTTCTAACCTGTTGCTG (site ACGAGTACTCA)”, the “recombinant barcode read abundance (log10)” value is 1.02.

Regarding “ACGAGTACTTGGGTTCTAACCTGTTGCTG (site ACGAGTACTCC)”, the “recombinant barcode read abundance (log10)” value was 0.662.

Take “ACGAGTCCTTGGGTTCTAACCTGTTGCGT (site ACGAGTCCTAC)”: the “recombinant barcode read abundance (log10)” value was 2.6.

For “ACGAGTCCTTGGGTTCTAACCTGTTGCGT (site ACGAGTCCTAG)”, the “recombinant barcode read abundance (log10)” value amounted to 0.202.

As to “ACGCAATCTTGGGTTCTAACCTGTTGCCT (site ACGCAATCTAG)”, the “recombinant barcode read abundance (log10)” value was determined as 0.0303.

As for “ACGCAATCTTGGGTTCTAACCTGTTGCCT (site ACGCACTCTAG)”, the “recombinant barcode read abundance (log10)” value came to 0.0895.

Take “ACGCAATCTTGGGTTCTAACCTGTTGCCT (site ACGCAGTCTAG)”: the “recombinant barcode read abundance (log10)” value was 0.131.

As for “ACGCAATCTTGGGTTCTAACCTGTTGCCT (site ACGCATTCTAG)”, the “recombinant barcode read abundance (log10)” value came out at 0.157.

With “ACGCACTCTTGGGTTCTAACCTGTTGCCG (site ACGCACTCTCG)”, the “recombinant barcode read abundance (log10)” value is 0.646.

As to “ACGCACTCTTGGGTTCTAACCTGTTGCCG (site GATGGTACTAT)”, the “recombinant barcode read abundance (log10)” value stood at 0.0148.

Regarding “ACGCATTCTTGGGTTCTAACCTGTTGCCT (site ACGCAATCTAG)”, the “recombinant barcode read abundance (log10)” value worked out at 0.0565.

As to “ACGCATTCTTGGGTTCTAACCTGTTGCCT (site ACGCACTCTAG)”, the “recombinant barcode read abundance (log10)” value was 0.123.

Turning to “ACGCATTCTTGGGTTCTAACCTGTTGCCT (site ACGCAGTCTAG)”, the “recombinant barcode read abundance (log10)” value worked out at 0.0603.

As for “ACGCATTCTTGGGTTCTAACCTGTTGCCT (site ACGCATTCTAG)”, the “recombinant barcode read abundance (log10)” value came to 0.355.

In the case of “ACGCGCCCTTGGGTTCTAACCTGTTGCAC (site ACGCGCCCTGT)”, the “recombinant barcode read abundance (log10)” value was 0.152.

“ACGCGCCCTTGGGTTCTAACCTGTTGCAC (site CCGCGCCCTAT)”: the “recombinant barcode read abundance (log10)” value turned out to be 0.0707.

Consider “ACGCTATCTTGGGTTCTAACCTGTTGCTT (site ACGCTATCTAA)”, for which the “recombinant barcode read abundance (log10)” value was determined as 0.13.

Regarding “ACGCTATCTTGGGTTCTAACCTGTTGCTT (site CTAGCGACTCG)”, the “recombinant barcode read abundance (log10)” value amounted to 0.159.

For “ACGGCATCTTGGGTTCTAACCTGTTGCCT (site ACGGCATCTAG)”, the “recombinant barcode read abundance (log10)” value came to 0.0883.

As for “ACGGCATCTTGGGTTCTAACCTGTTGCCT (site ACGGCCTCTAA)”, the “recombinant barcode read abundance (log10)” value was 0.225.

In the case of “ACGGGCTCTTGGGTTCTAACCTGTTGCTT (site ACGGGCTCTAA)”, the “recombinant barcode read abundance (log10)” value stood at 2.69.

As to “ACGGGCTCTTGGGTTCTAACCTGTTGCTT (site AGGGGCTCTCA)”, the “recombinant barcode read abundance (log10)” value is 0.032.

“ACGGTCACTTGGGTTCTAACCTGTTGCCG (site ACGGTCACTCG)”: the “recombinant barcode read abundance (log10)” value is 0.435.

As for “ACGGTCACTTGGGTTCTAACCTGTTGCCG (site AGGGGCACTCG)”, the “recombinant barcode read abundance (log10)” value was determined as 0.533.

Regarding “ACGTCAACTTGGGTTCTAACCTGTTGCCT (site ACATCAACTAG)”, the “recombinant barcode read abundance (log10)” value was found to be 0.192.

Turning to “ACGTCAACTTGGGTTCTAACCTGTTGCCT (site ACCTCAACTAG)”, the “recombinant barcode read abundance (log10)” value worked out at 0.454.

On to “ACGTCAACTTGGGTTCTAACCTGTTGCCT (site ACGTCAACTAG)”, for which the “recombinant barcode read abundance (log10)” value came to 0.0389.

As to “ACGTCAACTTGGGTTCTAACCTGTTGCCT (site ACTTCAACTAG)”, the “recombinant barcode read abundance (log10)” value was found to be 0.0307.

For the sequence “ACGTTTCCTTGGGTTCTAACCTGTTGCAT (site AAGTTTCCTAC)”, the “recombinant barcode read abundance (log10)” value was determined as 0.0104.

With “ACGTTTCCTTGGGTTCTAACCTGTTGCAT (site ACGTTTCCTAT)”, the “recombinant barcode read abundance (log10)” value is 0.0487.

Turning to “ACTAAGTCTTGGGTTCTAACCTGTTGCCT (site AATAAGTCTAG)”, the “recombinant barcode read abundance (log10)” value was 0.106.

For “ACTAAGTCTTGGGTTCTAACCTGTTGCCT (site ACTAAGTCTAG)”, the “recombinant barcode read abundance (log10)” value was found to be 0.53.

With “ACTAAGTCTTGGGTTCTAACCTGTTGCCT (site AGTAAGTCTAG)”, the “recombinant barcode read abundance (log10)” value was found to be 0.0249.

Turning to “ACTAAGTCTTGGGTTCTAACCTGTTGCCT (site ATTAAGTCTAG)”, the “recombinant barcode read abundance (log10)” value amounted to 0.0792.

For “ACTACTACTTGGGTTCTAACCTGTTGCCA (site ACTACTACTTG)”, the “recombinant barcode read abundance (log10)” value is 0.0676.

Turning to “ACTACTACTTGGGTTCTAACCTGTTGCCA (site GGTACTACTTG)”, the “recombinant barcode read abundance (log10)” value came to 0.433.

Turning to “ACTAGAACTTGGGTTCTAACCTGTTGCAA (site ACTAGAACTTT)”, the “recombinant barcode read abundance (log10)” value is 0.402.

Take “ACTAGAACTTGGGTTCTAACCTGTTGCAA (site ACTAGGACTCT)”: the “recombinant barcode read abundance (log10)” value was found to be 0.116.

Consider “ACTAGCTCTTGGGTTCTAACCTGTTGCTA (site ACTAGCTCTTA)”, for which the “recombinant barcode read abundance (log10)” value is 0.145.

In the case of “ACTAGCTCTTGGGTTCTAACCTGTTGCTA (site ACTAGGTCTTA)”, the “recombinant barcode read abundance (log10)” value was 0.0229.

As to “ACTAGGACTTGGGTTCTAACCTGTTGCAG (site ACTAGAACTTT)”, the “recombinant barcode read abundance (log10)” value was 0.0381.

Turning to “ACTAGGACTTGGGTTCTAACCTGTTGCAG (site ACTAGGACTCT)”, the “recombinant barcode read abundance (log10)” value worked out at 2.49.

As for “ACTAGGACTTGGGTTCTAACCTGTTGCGC (site ACTAGGACTAC)”, the “recombinant barcode read abundance (log10)” value worked out at 0.571.

As for “ACTAGGACTTGGGTTCTAACCTGTTGCGC (site ACTAGGACTCC)”, the “recombinant barcode read abundance (log10)” value is 0.478.

For “ACTAGGACTTGGGTTCTAACCTGTTGCGC (site ACTAGGACTGC)”, the “recombinant barcode read abundance (log10)” value came out at 2.3.

Consider “ACTAGGACTTGGGTTCTAACCTGTTGCGC (site ACTAGGACTTC)”, for which the “recombinant barcode read abundance (log10)” value came out at 0.0123.

As for “ACTCACCCTTGGGTTCTAACCTGTTGCGG (site ACTCACCCTCC)”, the “recombinant barcode read abundance (log10)” value was 2.62.

Regarding “ACTCACCCTTGGGTTCTAACCTGTTGCGG (site CTATTAACTTA)”, the “recombinant barcode read abundance (log10)” value came to 0.126.

Take “ACTCCGTCTTGGGTTCTAACCTGTTGCCT (site ACTCCGTCTAG)”: the “recombinant barcode read abundance (log10)” value came out at 1.28.

On to “ACTCCGTCTTGGGTTCTAACCTGTTGCCT (site ACTGCGTCTAG)”, for which the “recombinant barcode read abundance (log10)” value turned out to be 0.109.

Turning to “ACTCGATCTTGGGTTCTAACCTGTTGCCT (site ACTCGATCTAG)”, the “recombinant barcode read abundance (log10)” value was found to be 0.595.

Turning to “ACTCGATCTTGGGTTCTAACCTGTTGCCT (site AGTCGATCTAA)”, the “recombinant barcode read abundance (log10)” value turned out to be 0.0189.

Regarding “ACTCGGCCTTGGGTTCTAACCTGTTGCCT (site ACTCGGCCTAC)”, the “recombinant barcode read abundance (log10)” value was 0.0497.

As for “ACTCGGCCTTGGGTTCTAACCTGTTGCCT (site ACTCGGCCTAG)”, the “recombinant barcode read abundance (log10)” value came to 1.45.

For “ACTCGTCCTTGGGTTCTAACCTGTTGCTA (site ACTCGTCCTTA)”, the “recombinant barcode read abundance (log10)” value was 0.584.

As to “ACTCGTCCTTGGGTTCTAACCTGTTGCTA (site GAGAAGACTAC)”, the “recombinant barcode read abundance (log10)” value worked out at 0.0362.

As for “ACTGATACTTGGGTTCTAACCTGTTGCCT (site ACTGATACTAG)”, the “recombinant barcode read abundance (log10)” value was 1.84.

Consider “ACTGATACTTGGGTTCTAACCTGTTGCCT (site ACTGATCCTAG)”, for which the “recombinant barcode read abundance (log10)” value was found to be 0.0466.

On to “ACTGATACTTGGGTTCTAACCTGTTGCCT (site ACTGATGCTAG)”, for which the “recombinant barcode read abundance (log10)” value turned out to be 0.313.

For “ACTGATACTTGGGTTCTAACCTGTTGCCT (site ACTGATTCTAG)”, the “recombinant barcode read abundance (log10)” value came out at 0.241.

Take “ACTGATCCTTGGGTTCTAACCTGTTGCAT (site ACTGATCCTAT)”: the “recombinant barcode read abundance (log10)” value stood at 2.35.

As to “ACTGATCCTTGGGTTCTAACCTGTTGCAT (site TTCTTAACTCC)”, the “recombinant barcode read abundance (log10)” value was determined as 0.00751.

Consider “ACTGATCCTTGGGTTCTAACCTGTTGCCT (site ACTGATACTAG)”, for which the “recombinant barcode read abundance (log10)” value worked out at 0.00756.

In the case of “ACTGATCCTTGGGTTCTAACCTGTTGCCT (site ACTGATCCTAG)”, the “recombinant barcode read abundance (log10)” value came out at 2.1.
